The source of these data is PMC12716025, “Plectranthus‐derived Abietanes as Protein Kinase C‐δ Activators: In Silico Design, Human Serum Albumin Interaction, and Stability Evaluation” (Chemistry & Biodiversity, 2025).

The test deals with T1, Human serum albumin (HSA) (Homo sapiens, UniProt P02768).
T1 construct: gene ALB; Essentially fatty acid-free HSA, type A1887 (Sigma-Aldrich)
The test is described as follows: intrinsic tryptophan fluorescence quenching (binding constant Ka, […]°C), synchronous fluorescence, thermal shift (Tm +[…]°C).

T1 sequence (P02768 25-609): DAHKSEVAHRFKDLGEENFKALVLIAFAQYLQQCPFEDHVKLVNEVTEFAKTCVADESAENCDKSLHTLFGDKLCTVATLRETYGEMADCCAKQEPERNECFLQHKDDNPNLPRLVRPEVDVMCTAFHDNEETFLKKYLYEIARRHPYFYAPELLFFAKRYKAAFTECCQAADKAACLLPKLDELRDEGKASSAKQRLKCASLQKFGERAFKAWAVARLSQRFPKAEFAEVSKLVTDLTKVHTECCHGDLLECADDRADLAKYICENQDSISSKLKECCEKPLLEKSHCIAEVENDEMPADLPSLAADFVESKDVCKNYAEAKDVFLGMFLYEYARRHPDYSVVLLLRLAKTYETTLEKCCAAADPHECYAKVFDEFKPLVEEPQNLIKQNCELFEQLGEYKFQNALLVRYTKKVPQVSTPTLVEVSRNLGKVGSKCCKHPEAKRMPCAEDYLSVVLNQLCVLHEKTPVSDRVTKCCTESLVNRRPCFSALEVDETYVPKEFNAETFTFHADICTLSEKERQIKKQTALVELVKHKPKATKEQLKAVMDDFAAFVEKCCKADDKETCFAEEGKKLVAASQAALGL

On to `CC(=O)O[C@H]1C2=C(C(=O)C(O)=C(C(C)C)C2=O)[C@@]2(C)CCCC(C)(C)[C@@H]2[C@@H]1O` [compound 1, 7α-acetoxy-6β-hydroxyroyleanone], for which the Kd was 15.4 µM.
